Experimental data from patent US6291231A, “Microorganism producing terphenyl compounds” (Shionogi & Co., Ltd., priority 1996, dated 2001).
Values after ≈ are worked out from the molar mass of the structure shown.

Tests used:
BDF1 mouse splenocytes [1] = test: Suppression of the concanavalin A (Con A) mitogen reaction of mouse splenocytes, 3H-thymidine uptake; assay type: cell-based; conditions: for Radioactivity cpm ± SD / inhibition at 0.00025 µg/mL / inhibition at 0.00098 µg/mL / inhibition at 0.00391 µg/mL / inhibition at 0.0156 µg/mL / inhibition at 0.0625 µg/mL: Con A 5 μg/ml, 48 h; for Radioactivity cpm ± SD: 3H-thymidine; for inhibition at 0.00025 µg/mL / inhibition at 0.00098 µg/mL / inhibition at 0.00391 µg/mL / inhibition at 0.0156 µg/mL / inhibition at 0.0625 µg/mL: Mus musculus; for inhibition at 0.00025 µg/mL / inhibition at 0.00098 µg/mL / inhibition at 0.00391 µg/mL / inhibition at 0.0156 µg/mL / inhibition at 0.0625 µg/mL / IC50: Splenocyte; for IC50: Con A reaction of mouse splenocytes; for Suppression of the Con A reaction of mouse splenocytes (in words): depending on the compound concentration
Description: (§1) To each well of a 96 well microtiter plate were added 5×10^5 BDF1 mouse splenocytes suspended in 0.1 ml of 10% fetal calf serum-fortifed RPMI 1640 medium (2 mM of sodium bicarbonate, 50 units/ml of penicillin, 50 μg/ml of streptomycin and 5×10^-5 M of 2-mercaptethanol were added) were added. To each well, 5 μg/ml of Con A as a mitogen and the compound (I-1), (I-2) or (I-3) of a pre-determined concentration were added so that a final volume of each well reached 0.2 ml. Each compound of the present invention was dissolved in dimethylsulfoxide (DMSO) and diluted with the above RPMI 1640 medium to adjust the final concentration to 100 ng/ml or less. The splenocytes in the 96 well microtiter plate were cultivated at 37° C. for 48 hours in an incubator keeping the humidity 100%, carbon dioxide 5% and air 95%. The cells were pulse-labeledwith 3H-thymidine (18.5 Kbq/well) before 6 hours of harvest. After the cultivation, the cells were collected by a cell harvester and radioactivity taken in the cells was measured for being used as an indicator of a cell proliferation activity. Con A-free (--Con A) medium was used as a control.

BDF1 mouse splenocytes [2] = test: Suppression of the lipopolysaccharide (LPS) reaction of mouse splenocytes, 3H-thymidine uptake; assay type: cell-based; conditions: for Radioactivity cpm ± SD / inhibition at 0.00098 µg/mL / inhibition at 0.00391 µg/mL / inhibition at 0.0156 µg/mL / inhibition at 0.0625 µg/mL / inhibition at 0.25 µg/mL: LPS 10 μg/ml; for Radioactivity cpm ± SD: 3H-thymidine; for inhibition at 0.00098 µg/mL / inhibition at 0.00391 µg/mL / inhibition at 0.0156 µg/mL / inhibition at 0.0625 µg/mL / inhibition at 0.25 µg/mL: Mus musculus, 48 h; for inhibition at 0.00098 µg/mL / inhibition at 0.00391 µg/mL / inhibition at 0.0156 µg/mL / inhibition at 0.0625 µg/mL / inhibition at 0.25 µg/mL / IC50: Splenocyte; for IC50: LPS reaction of mouse splenocytes; for Suppressive effect on the LPS reaction of mouse splenocytes (in words): depends on the compound concentration
Description: as §1, with “Each compound of the present invention was dissolved in dimethylsulfoxide (DMSO) and diluted with the above RPMI 1640 medium to adjust the final concentration to 100 ng/ml or less.” left out
By the same method as described in above 1-1 except that lipopolysaccharide (LPS, 10 μg/ml) was used in spite of concanavalin A, a suppression of the reaction was examined. LPS-free (--LPS) medium was used as a control.

[3] = Solubility (characterisation data); assay type: physicochemical
BDF1 mouse splenocytes [4] = test: Suppression of the concanavalin A (Con A) mitogen reaction of mouse splenocytes, 3H-thymidine uptake; assay type: cell-based; parameters: Radioactivity cpm ± SD: dose or concentration left out as unconfirmed; conditions: for inhibition at 0.25 µg/mL: Mus musculus, Splenocyte, 48 h, Con A 5 μg/ml, compound 250.0 ng/ml
[5] = system: CCD-19Lu human normal pneumocyte; test: Cell proliferation inhibition (MTT), CCD-19Lu; assay type: cell-based
Description: (§2) To each well of a 96 well microtiter plate, the pre-determined number of various cell strains (0.1 ml) were added and pre-cultivated for a day under the same cultivation conditions as Experiment 1. To each well, 0.1 ml of the compound (I-1) was added so that the concentration was in the range of 0-10,000 ng/ml. After the cultivation for 3-4 days, 25 μl of 6 mg/ml MTT [3-(4,5-dimethylthiazol-2-yl)-2,5-diphenyltetrazolium bromide] (Sigma) solution was added to each well and the cells were cultivated at 37° C. for 4 hours under the same conditions as above. After the cultivation, 50 μl of 0.02 N hydrochloric acid solution of 20% sodium dodecyl sulfate was added to formazan generated and left at 37° C. for 24 hours for dissolving formazan. An absorption intensity (OD) of formazan generated in proportion to the number of living cells was measured with an immunoreader (InterMed) equipped with a 570 nm filter (The Journal of Immunological Method, No.65, p.55-63, 1983). The 50% inhibitory concentration of a cell proliferation (IC 50) was calculated from a correlation between a concentration of the compound (I-1) and absorption intensity.

[6] = system: Lu-99 human large cell lung cancer; test: Cell proliferation inhibition (MTT), Lu-99; assay type: cell-based
Description: as §2

[7] = system: CCFR-CEM human leukemia cell; test: Cell proliferation inhibition (MTT), CCFR-CEM; assay type: cell-based
Description: as §2

P388 mouse leukemia cell = test: Cell proliferation inhibition (MTT), P388; assay type: cell-based
Description: as §2

Structure (SMILES)	Radioactivity cpm ± SD (BDF1 mouse splenocytes [1]; compound 0.25 ng/ml) [cpm]	Radioactivity cpm ± SD (BDF1 mouse splenocytes [1]; compound 0.98 ng/ml) [cpm]	Radioactivity cpm ± SD (BDF1 mouse splenocytes [1]; compound 3.91 ng/ml) [cpm]	Radioactivity cpm ± SD (BDF1 mouse splenocytes [1]; compound 15.6 ng/ml) [cpm]	Radioactivity cpm ± SD (BDF1 mouse splenocytes [1]; compound 62.5 ng/ml) [cpm]	inhibition at 0.00025 µg/mL (BDF1 mouse splenocytes [1]; compound 0.25 ng/ml) [%]	inhibition at 0.00098 µg/mL (BDF1 mouse splenocytes [1]; compound 0.98 ng/ml) [%]	inhibition at 0.00391 µg/mL (BDF1 mouse splenocytes [1]; compound 3.91 ng/ml) [%]	inhibition at 0.0156 µg/mL (BDF1 mouse splenocytes [1]; compound 15.6 ng/ml) [%]	inhibition at 0.0625 µg/mL (BDF1 mouse splenocytes [1]; compound 62.5 ng/ml) [%]	IC50 (BDF1 mouse splenocytes [1]) [ng/mL]	Suppression of the Con A reaction of mouse splenocytes (in words) (BDF1 mouse splenocytes [1])	Radioactivity cpm ± SD (BDF1 mouse splenocytes [2]; compound 0.98 ng/ml) [cpm]	Radioactivity cpm ± SD (BDF1 mouse splenocytes [2]; compound 3.91 ng/ml) [cpm]	Radioactivity cpm ± SD (BDF1 mouse splenocytes [2]; compound 15.6 ng/ml) [cpm]	Radioactivity cpm ± SD (BDF1 mouse splenocytes [2]; compound 62.5 ng/ml) [cpm]	Radioactivity cpm ± SD (BDF1 mouse splenocytes [2]; compound 250.0 ng/ml) [cpm]	inhibition at 0.00098 µg/mL (BDF1 mouse splenocytes [2]; compound 0.98 ng/ml) [%]	inhibition at 0.00391 µg/mL (BDF1 mouse splenocytes [2]; compound 3.91 ng/ml) [%]	inhibition at 0.0156 µg/mL (BDF1 mouse splenocytes [2]; compound 15.6 ng/ml) [%]	other results
COc1cc(-c2c(OC)cc(-c3ccc(O)cc3)c(OC)c2O)ccc1OCC=C(C)C [Compound I-3, 3,3',6'-trimethoxy-4-(3-methyl-2-butenyloxy)-[1,1';4',1"] terphenyl-2',4"-diol]	285408 ± 7252	266173 ± 6208	101504 ± 1326	20510 ± 287	7755 ± 624	-3.1	4	64.2	93.8	98.4	2 (≈ 0.00458 µM)	significantly suppressed	184366 ± 10625	128436 ± 4167	46765 ± 2209	22961 ± 1187	14962 ± 866	-20.2	16.8	71	inhibition at 0.0625 µg/mL (BDF1 mouse splenocytes [2]; compound 62.5 ng/ml): 86.7%; inhibition at 0.25 µg/mL (BDF1 mouse splenocytes [2]; compound 250.0 ng/ml): 92%; IC50 (BDF1 mouse splenocytes [2]): 8 ng/mL (≈ 0.0183 µM); Suppressive effect on the LPS reaction of mouse splenocytes (in words) (BDF1 mouse splenocytes [2]): potent suppressive effect; Solubility in acetone, ethyl acetate and chloroform [3]: soluble; Solubility in water [3]: insoluble; Radioactivity cpm ± SD (BDF1 mouse splenocytes [4]): 7522 ± 485 cpm; inhibition at 0.25 µg/mL (BDF1 mouse splenocytes [4]): 98.5%
COc1cc(-c2ccccc2)c(OC)c(O)c1-c1ccc(OCC=C(C)C)c(O)c1 [Compound I-2, 3',6'-dimethoxy-4-(3-methyl-2-butenyloxy)-[1,1';4',1"] terphenyl-3,2'-diol]	281904 ± 6522	281371 ± 10119	191575 ± 6969	41660 ± 531	11793 ± 235	-1.8	-1.6	30.9	86	96.9	5.6 (≈ 0.0138 µM)	significantly suppressed	208023 ± 8941	132834 ± 5106	78686 ± 4135	39824 ± 651	22312 ± 1122	-35.9	13.9	49.8	inhibition at 0.0625 µg/mL (BDF1 mouse splenocytes [2]; compound 62.5 ng/ml): 75.6%; inhibition at 0.25 µg/mL (BDF1 mouse splenocytes [2]; compound 250.0 ng/ml): 87.2%; IC50 (BDF1 mouse splenocytes [2]): 15.6 ng/mL (≈ 0.0384 µM); Suppressive effect on the LPS reaction of mouse splenocytes (in words) (BDF1 mouse splenocytes [2]): potent suppressive effect; Solubility in acetone, ethyl acetate and chloroform [3]: soluble; Solubility in water [3]: insoluble; Radioactivity cpm ± SD (BDF1 mouse splenocytes [4]): 8233 ± 254 cpm; inhibition at 0.25 µg/mL (BDF1 mouse splenocytes [4]): 98.2%
COc1cc(-c2ccc(O)cc2)c(OC)c(O)c1-c1ccc(OCC=C(C)C)c(O)c1 [Compound I-1, 3',6'-dimethoxy-4-(3-methyl-2-butenyloxy) -[1,1':4',1"] terphenyl-3,2',4"-triol]	292470 ± 542	210046 ± 3288	56871 ± 1554	11366 ± 372	6411 ± 246	-5.6	24.5	80.5	97.1	98.9	1.2 (≈ 0.00284 µM)	significantly suppressed	153396 ± 6123	88405 ± 10394	32548 ± 315	16070 ± 944	15046 ± 344	0.3	43.4	80.4	inhibition at 0.0625 µg/mL (BDF1 mouse splenocytes [2]; compound 62.5 ng/ml): 91.3%; inhibition at 0.25 µg/mL (BDF1 mouse splenocytes [2]; compound 250.0 ng/ml): 92%; IC50 (BDF1 mouse splenocytes [2]): 4.5 ng/mL (≈ 0.0107 µM); Suppressive effect on the LPS reaction of mouse splenocytes (in words) (BDF1 mouse splenocytes [2]): potent suppressive effect; IC50 ([5]; Homo sapiens, CCD-19Lu, MEM, 2 × 10^4 cells/well, MTT, 3-4 days, read-out: IC50 (ng/ml) of cell proliferation): > 10000 ng/mL; Antiproliferative activity (in words) ([5]; normal pneumocyte CCD-19Lu): not on the normal pneumocyte CCD-19Lu; IC50 ([6]; Homo sapiens, Lu-99, RPMI 1640, 2 × 10^3 cells/well, MTT, 3-4 days, read-out: IC50 (ng/ml) of cell proliferation): 1 ng/mL (≈ 0.00237 µM); Antiproliferative activity (in words) ([6]; tumor cells (Lu-99)): has an antiproliferative activity on the tumor cells; IC50 ([7]; Homo sapiens, CCFR-CEM, RPMI 1640, 5 × 10^3 cells/well, MTT, 3-4 days, read-out: IC50 (ng/ml) of cell proliferation): 0.2 ng/mL (≈ 0.000473 µM); Antiproliferative activity (in words) ([7]; tumor cells (CCFR-CEM)): has an antiproliferative activity on the tumor cells; IC50 (P388 mouse leukemia cell; Mus musculus, P388, RPMI 1640, 5 × 10^2 cells/well, MTT, 3-4 days, read-out: IC50 (ng/ml) of cell proliferation): 12 ng/mL (≈ 0.0284 µM); Antiproliferative activity (in words) (P388 mouse leukemia cell; tumor cells (P388)): has an antiproliferative activity on the tumor cells; Solubility in acetone, ethyl acetate and chloroform [3]: soluble; Solubility in water [3]: insoluble; Radioactivity cpm ± SD (BDF1 mouse splenocytes [4]): 6404 ± 403 cpm; inhibition at 0.25 µg/mL (BDF1 mouse splenocytes [4]): 98.9%
